Where a SMILES comes first, the peptide text is derived from it. The star is where a group is joined. Cbz = O=C(OCc1ccccc1)*; CH2F = FC*
How the values were obtained:
Assay type in all cases: cell-based, human
BJAB or Colo205 cells = test: Immunoblot for cleavage of clathrin-pathway components after DNA-damaging agents
Description: BJAB or Colo205 cells were treated with vinblastine, or adriamycin for the indicated time and analyzed by immunoblot as in FIG. 1.
Human colorectal adenocarcinoma Colo205 cells human B cell lymphoma BJAB cells and human T cell carcinoma Jurkat wild type cells (A3 clone), FADD-deficient (E1) and caspase-8-deficient (I9.3) were cultured in RPMI 1640+10% fetal bovine serum (FBS)+2 mM glutamine+1000 U/ml Penicillin-Streptomycin (Life Technologies). Human cervical carcinoma HeLa-M cells human breast adenocarcinoma MCF7 and human colorectal adenocarcinomas HCT15, HCT8, SW948, Colo320, human fibrosarcoma HT180 (ATCC), HCT116 Bax(−/−), HCT116 Bax(+/−) were grown in 50:50 Dulbecco's modified Eagle's and FK12 medium+10% FBS+1000 U/ml Penicillin-Streptomycin. cDNA clones encoding temperature-sensitive dynamins were the G273D mutant and dominant negative K44A mutant dynamin-1 (Dyn^G273D and Dyn^K44A, respectively). Dyn^G273D was expressed from pHUSH-ProEx, a single retroviral plasmid tetracycline-inducible expression system constructed at Genentech. […]

[1] = tested on: AP2α, AP1/2β, clathrin heavy chain (CHC), dynamin; test: Immunoblot for cleavage of clathrin-dependent endocytosis machinery and caspases in cell lysates
Description: (b) Colo205 cells were treated as in (a) and analyzed by immunoblot for processing of specific components of various types of clathrin-associated endocytic trafficking.
Open arrows indicate cleavage products and solid arrows indicate full-length proteins.
(c) BJAB cells were treated with crosslinked Apo2L/TRAIL and processing of dynamin was determined by immunoblot.
The cells were analyzed by immunoblot for processing of caspase-8, caspase-9, caspase-3, and AP2α.
Human colorectal adenocarcinoma Colo205 cells human B cell lymphoma BJAB cells and human T cell carcinoma Jurkat wild type cells (A3 clone), FADD-deficient (E1) and caspase-8-deficient (I9.3) were cultured in RPMI 1640+10% fetal bovine serum (FBS)+2 mM glutamine+1000 U/ml Penicillin-Streptomycin (Life Technologies). Human cervical carcinoma HeLa-M cells human breast adenocarcinoma MCF7 and human colorectal adenocarcinomas HCT15, HCT8, SW948, Colo320, human fibrosarcoma HT180 (ATCC), HCT116 Bax(−/−), HCT116 Bax(+/−) were grown in 50:50 Dulbecco's modified Eagle's and FK12 medium+10% FBS+1000 U/ml Penicillin-Streptomycin. cDNA clones encoding temperature-sensitive dynamins were the G273D mutant and dominant negative K44A mutant dynamin-1 (Dyn^G273D and Dyn^K44A, respectively). Dyn^G273D was expressed from pHUSH-ProEx, a single retroviral plasmid tetracycline-inducible expression system constructed at Genentech. The cDNA was first cloned into a shuttle plasmid containing a CMV enhancer-promoter sequence with two copies of the tetracycline operator TetO2, then transferred via in vitro phage lamda-based recombination, or Gateway® technology (Invitrogen, Carlsbad), to a Moloney murine leukemia virus backbone vector in which the wild type Tet repressor is driven by a separate β-actin promoter and followed by an internal ribosomal entry sequence and puromycin selection cassette. Dyn^K44A was expressed from the 2-vector tetracycline-inducible retroviral expression system, pRevTet-On/pRev-Tre (Clontech), using serial infections. Retroviral vectors were transfected into Phoenix amphotropic Moloney Murine Leukemia Virus packaging cells using Lipofectamine 2000 […]. Retroviral particles were harvested and used in HeLa-M and BJAB cell infections as described previously (Simpson et al. J Cell Biol 137, 835-45, 1997). Dyn^G273 infected cells were puromycin selected (2-3 μg/ml) for 1-2 weeks and cloned either by manually picking individual HeLa-M colonies or by FACS sorting of resistant BJAB cells (gated for exclusion of propidium iodide) and single cell seeding in 96-well cell culture plates using an EPICS ELITE-ESP equipped with an Autoclone device (Coulter, Hialeah, Fla.). Cell clones were screened for uniformity of doxycycline inducible dynamin-1 expression by immunofluorescence microscopy. Dyn^K44A-infected cells were hygromycin B (400 μg/ml) and G418 (1 mg/ml) selected for 1-2 weeks. Induction with doxycycline (1 μg/ml) was performed at 32° C. for 72 hr as described previously (Damke et al. J Cell Biol 131, 69-80 1995). Vincristine sulfate (#T-117), Adriamycin.HCL (GR-319) were purchased from Biomol, tetracycline-free FBS from Hyclone, Puromycin from Clontech and Doxycyclin from Sigma. zVAD-fmk (asN-benzyloxycarbonyl-Val-Ala-Asp-fluoromethylketone) was obtained from MD Biosciences (#FK-009). […]

BJAB and Colo205 cells = test: Transferrin (Tf) endocytosis rate by flow cytometry; conditions: BJAB cells, zVAD-fmk 30 min then 4 hr crosslinked Apo2L/TRAIL
Description: The cells were then equilibrated on ice for 30 min with Alexa-647-conjugated Tf (^647TF) and uptake at 37° C. was measured by flow cytometry. Each endocytosis rate was derived from the slope of the initial linear phase of a 4 min uptake kinetics plot (a, inset). […] Rates were normalized to the DMSO treated sample (±SEM).
Sedimented cells were resuspended in cold 2% paraformaldehyde/PBS and mean fluorescence intensity of 10,000 cells quantified with a Coulter Epics Elite-ESP flow cytometer (Hialeah, Fla.). Endocytic rates were determined from linear slopes of steady-state internal/surface plots (see, e.g., Wiley, H. S. et. al, J Biol Chem 257, 4222-9 (1982)). For temperature-shift experiments, ice binding incubations were avoided. Instead, cells were preconditioned for 20 min and maintained at 30° C. or 38° C. in binding medium, incubated an additional 0 (control) or 20 min with ^647Tf, chilled on ice for 30 min, and processed for flow cytometry to determine internal/surface ^647Tf ratios.

DISC = DISC immunoprecipitation; conditions: BJAB cells chilled on ice
Description: (a) BJAB cells were equilibrated with ^647Tf on ice, incubated for the indicated uptake interval at 37° C. or on ice, then fluorescence quantified by flow cytometry. […] DISC-associated FADD and caspase-8 were visualized by immunoblot. (c, d) Dyn^G273D-transduced BJAB cells were treated with buffer (No Dox) or doxycyline (Dox) and shifted to 38° C. for 20 min to inactivate dynamin. The cells were treated with crosslinked Apo2L/TRAIL for the indicated amounts of time and the DISC was immunoprecipitated. DISC-associated FADD and caspase-8 were visualized by immunoblot (c) or DISC-associated caspase-8 activity was measured as described previously (Sharp et al. J Biol Chem 280, 19401-409, 2005).
BJAB cells (1×10^7 per time point) were treated with Flag-Apo2L/TRAIL cross-linked by anti-FLAG M2 Abs, collected, lysed, immunoprecipitated and the DISC was analyzed as described (see, e.g., Kischkel, F. C. et al., Immunity 12, 611-20 (2000)).

COc1cccc2c1C(=O)c1c(O)c3c(c(O)c1C2=O)C[C@@](O)(C(=O)CO)C[C@@H]3O[C@H]1C[C@H](N)[C@H](O)[C@H](C)O1 [adriamycin]
Cleavage of components of the clathrin machinery (BJAB or Colo205 cells): induced cleavage of components of the clathrin machinery, albeit with much slower kinetics than DR ligands

CC[C@]1(O)C[C@@H]2CN(CCc3c([nH]c4ccccc34)[C@@](C(=O)OC)(c3cc4c(cc3OC)N(C)[C@H]3[C@@](O)(C(=O)OC)[C@H](OC(C)=O)[C@]5(CC)C=CCN6CC[C@]43[C@@H]65)C2)C1 [vinblastine]
Cleavage of components of the clathrin machinery (BJAB or Colo205 cells): induced cleavage of components of the clathrin machinery, albeit with much slower kinetics than DR ligands

CC(C)[C@H](NC(=O)OCc1ccccc1)C(=O)N[C@@H](C)C(=O)N[C@@H](CC(=O)O)C(=O)CF [zVAD-fmk, N-benzyloxycarbonyl-Val-Ala-Asp-fluoromethylketone, reference compound] (Cbz-Val-Ala-Asp-CH2F)
Effect of pretreatment on ligand-induced cleavage of AP2α and CHC ([1]; BJAB cells, zVAD-fmk 20 μM 30 min then crosslinked Apo2L/TRAIL 1 μg/mL): prevented cleavage of AP2α and CHC
Effect of pretreatment on Apo2L/TRAIL inhibition of Tf endocytosis (BJAB and Colo205 cells): substantially reversed this inhibition

B1: FasL: Flag-tagged FasL, crosslinked; SEQ ID NO: 9 (protein, listed as Homo sapiens)
chain: MQQPFNYPYPQIYWVDSSASSPWAPPGTVLPCPTSVPRRPGQRRPPPPPPPPPLPPPPPPPPLPPLPLPPLKKRGNHSTGLCLLVMFFMVLVALVGLGLGMFQLFHLQKELAELRESTSQMHTASSLEKQIGHPSPPPEKKELRKVAHLTGKSNSRSMPLEWEDTYGIVLLSGVKYKKGGLVINETGLYFVYSKVYFRGQSCNNLPLSHKVYMRNSKYPQDLVMMEGKMMSYCTTGQMWARSSYLGAVFNLTSADHLYVNVSELSLVNFEESQTFFGLYKL
modifications: Flag tag, crosslinked
Cleavage of AP2α and CHC ([1]; BJAB cells, crosslinked ligand): stimulated cleavage of AP2α and CHC in BJAB cells comparably to Apo2L/TRAIL
Processing of AP2α and CHC ([1]; caspase-8-deficient or FADD-deficient mutant Jurkat cell lines): neither ligand stimulated processing of these targets
Cleavage of AP2α and CHC ([1]; wt Jurkat T cells): induced cleavage of AP2α and CHC
DISC assembly with Tf endocytosis blocked (DISC): still recruited FADD and caspase-8 to their respective receptors and processed caspase-8

Source: patent US8198033B2, “Methods and materials for observing apoptosis” (Genentech, Inc., priority 2006, dated 2012)
